From patent US11908550B2, “Method for determining different PBDEs derivatives from their response to activities of enoyl-ACP reductase” (Nanjing University, priority 2020, dated 2024) come the findings set out here.

This assay addresses T1, enoyl-ACP reductase (recombinant FabI) (Escherichia coli, UniProt P0AEK4).
T1 construct: His; made in house; host or cells: E. coli
Kind of assay: in vitro binding activity assay (FabI enzyme activity, oxidation rate of NADH to NAD+ at 340 nm). It counts as biochemical, E. coli. The conditions noted are these: PBDEs 0.014-10 μM incubated with 100 nM recombinant FabI on ice for 60 minutes. The method, then: The in vitro binding activity assay was as follows: overexpression of His-labeled FabI in the E. coli lysate was prepared. When the bacterial optical density (OD600) reached 0.6, the expression was induced overnight with 1 mm IPTG at 16° C. Then, the bacteria were collected and washed once with PBS. The bacteria were lysed in the lysis buffer containing 500 mM NaCl, 10 mm Tris HCl and 0.1% NP-40 (pH=8.5). FabI was purified from the supernatant with Ni-NTA agarose (Qiagen) and centrifuged at 14000 g for 30 min. The resin containing Ni-NTA was transferred to a Poly-Prep column (Bio-Red) and equilibrated twice with washing buffer (50 mm PBS, pH 8.2, 300 mM NaCl and 10 mm imidazole). After incubation with FabI lysate at 4° C. for 30 minutes, the resin was washed twice with a washing buffer, and the FabI protein was eluted with a buffer containing 50 mm PBS, pH 8.2, 300 mM NaCl and 250 mm imidazole. 300 μM butyl coenzyme A was added and followed by adding the mixture of 100 nM recombinant FabI, 400 μM NADH and 40 μM NAD+. The oxidation rate of NADH to NAD+ was measured every 2 minutes with a microplate reader at 340 nm. In order to determine the inhibition ability of PBDEs derivatives to the FabI enzyme activity, PBDEs with different concentrations (0.014-10 μM) were incubated with 100 nM recombinant FabI on ice for 60 minutes, and then the oxidation rate of NADH to NAD+ was determined.

The structures appear in SMILES notation. Entries after “also recorded” stand apart in the source; their conditions may differ.

T1 sequence (P0AEK4 whole entry): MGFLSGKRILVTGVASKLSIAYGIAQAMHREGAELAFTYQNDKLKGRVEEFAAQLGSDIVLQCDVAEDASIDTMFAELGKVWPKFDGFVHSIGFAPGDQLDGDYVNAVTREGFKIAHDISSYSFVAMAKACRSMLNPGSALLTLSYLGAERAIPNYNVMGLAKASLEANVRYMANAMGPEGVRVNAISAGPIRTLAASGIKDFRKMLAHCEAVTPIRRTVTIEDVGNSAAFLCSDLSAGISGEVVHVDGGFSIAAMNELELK

Regarding `COc1cc(Oc2ccc(Br)cc2Br)c(Br)cc1Br` [5MeOBDE47], the “in vitro measurement of the binding activity” value (shortened to “in vitro measurement”) is given as “No inhibition; also recorded: No inhibit”.

For `COc1cc(Br)c(Br)c(Br)c1Oc1ccc(Br)cc1Br` [6MeOBDE85], the “in vitro measurement” value was “No inhibition; also recorded: No inhibit”.

Turning to `Oc1cc(Cl)ccc1Oc1ccc(Cl)cc1Cl` [TCS, Triclosan, reference compound], the “in vitro measurement” value is recorded as “Inhibit”.

As for `COc1ccc(Oc2ccc(Br)cc2Br)c(Br)c1` [4MeOBDE17], the “in vitro measurement” value was “No inhibition; also recorded: No inhibit”.

For the compound `Oc1cc(Br)cc(Br)c1Oc1ccc(Br)cc1Br` [6OHBDE47], the “in vitro measurement” value is recorded as “Inhibit”.

With `Oc1cc(Br)cc(Br)c1Oc1ccccc1Br` [6OHBDE17], the “in vitro measurement” value is “Inhibit”.

As for `Oc1c(Br)cc(Br)c(Br)c1Oc1ccc(Br)cc1Br` [6OHBDE90], the “in vitro measurement” value is “Inhibit”.

For `COc1c(Br)cc(Br)c(Br)c1Oc1ccc(Br)cc1Br` [6MeOBDE90], the “in vitro measurement” value is given as “No inhibition; also recorded: No inhibit”.

Take `COc1cc(Br)cc(Br)c1Oc1ccc(Br)cc1Br` [6MeOBDE47]: the “in vitro measurement” value is “No inhibition; also recorded: No inhibit”.

For `Oc1c(Oc2ccc(Br)cc2Br)cc(Br)c(Br)c1Br` [2OHBDE123], the “in vitro measurement” value is “No inhibition; also recorded: No inhibit”.

Take `Oc1cc(Br)c(Oc2ccc(Br)cc2Br)cc1Br` [4OHBDE49]: the “in vitro measurement” value is “able to inhibit; also recorded: inhibition”.

Turning to `COc1cc(Br)cc(Br)c1Oc1ccccc1Br` [6MeOBDE17], the “in vitro measurement” value is “No inhibition; also recorded: No inhibit”.

`Oc1c(Br)c(Br)c(Br)c(Br)c1Oc1ccc(Br)cc1Br` [6OHBDE137]: the “in vitro measurement” value is “Inhibit”.
